# From ChEMBL document CHEMBL1201862, “PubChem BioAssay data set” (2004)
# The source made the active and inactive calls.
# Experiments:
# [1] = molecular target: Voltage-dependent T-type calcium channel subunit alpha-1H (Homo sapiens, UniProt O95180); type: functional;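 note: channel activity triggered by adding a high calcium stimulation buffer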
# [2] = molecular target: T1, Adenosylmethionine-8-amino-7-oxononanoate aminotransferase (Mycobacterium tuberculosis, UniProt P9WQ81); experiment: Mycobacterium tuberculosis BioA enzyme inhibitor Measured in Biochemical System Using Plate Reader - 2163-02_Inhibitor_Dose_CherryPick_Activity.; type: functional, Mycobacterium tuberculosis UT205
# T1 sequence (P9WQ81 whole entry): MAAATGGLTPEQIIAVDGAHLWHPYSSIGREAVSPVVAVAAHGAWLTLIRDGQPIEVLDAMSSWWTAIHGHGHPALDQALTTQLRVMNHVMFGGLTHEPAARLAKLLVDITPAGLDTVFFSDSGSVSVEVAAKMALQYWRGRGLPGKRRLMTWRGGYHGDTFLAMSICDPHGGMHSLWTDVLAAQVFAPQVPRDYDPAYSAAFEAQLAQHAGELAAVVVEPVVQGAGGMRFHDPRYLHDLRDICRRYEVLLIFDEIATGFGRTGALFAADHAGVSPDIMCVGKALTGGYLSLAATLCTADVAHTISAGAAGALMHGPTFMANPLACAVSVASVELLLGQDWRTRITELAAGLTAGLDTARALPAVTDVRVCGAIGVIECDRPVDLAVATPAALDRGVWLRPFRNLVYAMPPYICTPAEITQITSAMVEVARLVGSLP
# H4 = experiment: Luminescence Cell-Based Dose Response HTS to Identify Activators of 5'UTR Stem-Loop Driven Prion Protein mRNA Translation in H4 Neuroglioblastoma Cells. [Related pubchem assays: 1829 (Project Summary), 1814 (Primary HTS)]; type: functional; details: Homo sapiens
# [3] = Luminescence Cell-Based Dose Confirmation HTS to Identify Activators of 5'UTR Stem-Loop Driven Alpha-Synuclein mRNA Translation in H4 Neuroglioblastoma Cells. [Related pubchem assays: 1829 (Project Summary), 1814 (Primary HTS)]; type: functional
# [4] = Luminescence Cell-Based Dose Response HTS to Identify Activators of Luciferase Translation or Activity in H4 […] Cells. [Related pubchem assays: 1829 (Project Summary), 1814 (Primary HTS)]; type: functional
# [5] = blockers of HIV-1 ZM109 envelope-driven cell-cell fusion – HeLa effector, CEM target cells, luciferase, cherry-pick, dose response (AID 652058); type: functional, cell-based;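 note: luciferase signal from HIV-1 Env mediated cell-cell fusion of effector and target cells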
# [6] = HIV-1 AD8 envelope cell-cell fusion blockers – cherry-pick, dose response (AID 652062); type: functional, cell-based;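 note: luciferase signal from cell-cell fusion driven by HIV-1 clade B AD8 Env; potency is for inhibitors of fusion seen as a drop in luminescence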
# [7] = blockers of HIV-1 envelope-mediated cell-cell fusion – cherry-pick, dose response (AID 652057); type: functional, cell-based
# [8] = blockers of bursicon-stimulated LGR2 cAMP reporter – cell-based, HEK293, CRE-luciferase reporter, cherry pick, set 2, dose response (AID 743343); type: functional;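 note: transfected cells were stimulated with diluted bursicon conditioned medium after compound addition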
# [9] = viability loss in HEK293 cells – cell-based, plate reader, cherry-picked samples, cytotoxicity control, dose response (AID 743446); type: functional
# [10] = blockade of melanocortin 4 receptor signaling – cell-based, plate reader, cherry pick, counter-screen for LGR2 antagonist project, dose response (AID 743444); type: functional;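 note: transfected HEK 293 cells stimulated with alpha-MSH peptide; potency of inhibitors of the alpha-MSH evoked signal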
# H9c2 = experiment: cells; type: functional, cell-based; details: Rattus norvegicus, H9c2, Myocardium;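 note: confirmatory concentration-response retest of ultra-high-throughput screening hits for modulation of myocardial damage; cell death induced by hydrogen peroxide oxidative stress; compound pretreatment for 60 min then peroxide exposure for 2 h; potency is for protecting the cells against peroxide damage rather than for killing them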
# [11] = A549 cell cytotoxicity, dose response, cytotoxicity control, plate reader, cherry-pick, antagonist series (AID 743412); type: functional, cell-based
# SN12K1 = experiment: cells; type: functional; details: Homo sapiens
# P388 = experiment: cells; type: functional; details: Mus musculus
# P388/ADR = experiment: cells; type: functional; details: Mus musculus
# [12] = viability loss in HeLa cells – cytotoxicity control for MgcRacGAP inhibitor project, dose response (AID 624300); type: functional
# [13] = molecular target: T2, Rac GTPase-activating protein 1 (Homo sapiens, UniProt Q9H0H5); experiment: blockers of MgcRacGAP-driven Rac1 GTP hydrolysis – biochemical, ADP Hunter fluorescence, primary and confirmatory, confirmation (AID 624330); type: functional
# T2 sequence (Q9H0H5 whole entry): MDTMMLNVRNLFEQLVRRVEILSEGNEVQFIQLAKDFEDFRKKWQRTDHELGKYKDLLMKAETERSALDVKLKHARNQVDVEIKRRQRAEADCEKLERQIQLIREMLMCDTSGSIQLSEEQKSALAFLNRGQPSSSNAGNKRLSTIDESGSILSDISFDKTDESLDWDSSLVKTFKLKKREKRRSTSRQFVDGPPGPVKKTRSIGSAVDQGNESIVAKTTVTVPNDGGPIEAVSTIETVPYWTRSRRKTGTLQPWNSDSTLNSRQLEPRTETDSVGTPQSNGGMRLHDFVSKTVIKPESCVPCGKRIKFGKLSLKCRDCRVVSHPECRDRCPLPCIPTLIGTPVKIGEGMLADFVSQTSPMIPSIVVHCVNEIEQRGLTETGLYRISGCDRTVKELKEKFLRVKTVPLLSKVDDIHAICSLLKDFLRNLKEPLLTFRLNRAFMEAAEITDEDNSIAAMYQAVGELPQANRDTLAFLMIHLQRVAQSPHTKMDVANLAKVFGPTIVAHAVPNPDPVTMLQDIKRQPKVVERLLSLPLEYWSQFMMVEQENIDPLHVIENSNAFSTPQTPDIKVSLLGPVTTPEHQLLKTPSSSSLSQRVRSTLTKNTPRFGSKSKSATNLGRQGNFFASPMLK
# Chain of Voltage-dependent T-type calcium channel subunit alpha-1H (O95180 whole entry): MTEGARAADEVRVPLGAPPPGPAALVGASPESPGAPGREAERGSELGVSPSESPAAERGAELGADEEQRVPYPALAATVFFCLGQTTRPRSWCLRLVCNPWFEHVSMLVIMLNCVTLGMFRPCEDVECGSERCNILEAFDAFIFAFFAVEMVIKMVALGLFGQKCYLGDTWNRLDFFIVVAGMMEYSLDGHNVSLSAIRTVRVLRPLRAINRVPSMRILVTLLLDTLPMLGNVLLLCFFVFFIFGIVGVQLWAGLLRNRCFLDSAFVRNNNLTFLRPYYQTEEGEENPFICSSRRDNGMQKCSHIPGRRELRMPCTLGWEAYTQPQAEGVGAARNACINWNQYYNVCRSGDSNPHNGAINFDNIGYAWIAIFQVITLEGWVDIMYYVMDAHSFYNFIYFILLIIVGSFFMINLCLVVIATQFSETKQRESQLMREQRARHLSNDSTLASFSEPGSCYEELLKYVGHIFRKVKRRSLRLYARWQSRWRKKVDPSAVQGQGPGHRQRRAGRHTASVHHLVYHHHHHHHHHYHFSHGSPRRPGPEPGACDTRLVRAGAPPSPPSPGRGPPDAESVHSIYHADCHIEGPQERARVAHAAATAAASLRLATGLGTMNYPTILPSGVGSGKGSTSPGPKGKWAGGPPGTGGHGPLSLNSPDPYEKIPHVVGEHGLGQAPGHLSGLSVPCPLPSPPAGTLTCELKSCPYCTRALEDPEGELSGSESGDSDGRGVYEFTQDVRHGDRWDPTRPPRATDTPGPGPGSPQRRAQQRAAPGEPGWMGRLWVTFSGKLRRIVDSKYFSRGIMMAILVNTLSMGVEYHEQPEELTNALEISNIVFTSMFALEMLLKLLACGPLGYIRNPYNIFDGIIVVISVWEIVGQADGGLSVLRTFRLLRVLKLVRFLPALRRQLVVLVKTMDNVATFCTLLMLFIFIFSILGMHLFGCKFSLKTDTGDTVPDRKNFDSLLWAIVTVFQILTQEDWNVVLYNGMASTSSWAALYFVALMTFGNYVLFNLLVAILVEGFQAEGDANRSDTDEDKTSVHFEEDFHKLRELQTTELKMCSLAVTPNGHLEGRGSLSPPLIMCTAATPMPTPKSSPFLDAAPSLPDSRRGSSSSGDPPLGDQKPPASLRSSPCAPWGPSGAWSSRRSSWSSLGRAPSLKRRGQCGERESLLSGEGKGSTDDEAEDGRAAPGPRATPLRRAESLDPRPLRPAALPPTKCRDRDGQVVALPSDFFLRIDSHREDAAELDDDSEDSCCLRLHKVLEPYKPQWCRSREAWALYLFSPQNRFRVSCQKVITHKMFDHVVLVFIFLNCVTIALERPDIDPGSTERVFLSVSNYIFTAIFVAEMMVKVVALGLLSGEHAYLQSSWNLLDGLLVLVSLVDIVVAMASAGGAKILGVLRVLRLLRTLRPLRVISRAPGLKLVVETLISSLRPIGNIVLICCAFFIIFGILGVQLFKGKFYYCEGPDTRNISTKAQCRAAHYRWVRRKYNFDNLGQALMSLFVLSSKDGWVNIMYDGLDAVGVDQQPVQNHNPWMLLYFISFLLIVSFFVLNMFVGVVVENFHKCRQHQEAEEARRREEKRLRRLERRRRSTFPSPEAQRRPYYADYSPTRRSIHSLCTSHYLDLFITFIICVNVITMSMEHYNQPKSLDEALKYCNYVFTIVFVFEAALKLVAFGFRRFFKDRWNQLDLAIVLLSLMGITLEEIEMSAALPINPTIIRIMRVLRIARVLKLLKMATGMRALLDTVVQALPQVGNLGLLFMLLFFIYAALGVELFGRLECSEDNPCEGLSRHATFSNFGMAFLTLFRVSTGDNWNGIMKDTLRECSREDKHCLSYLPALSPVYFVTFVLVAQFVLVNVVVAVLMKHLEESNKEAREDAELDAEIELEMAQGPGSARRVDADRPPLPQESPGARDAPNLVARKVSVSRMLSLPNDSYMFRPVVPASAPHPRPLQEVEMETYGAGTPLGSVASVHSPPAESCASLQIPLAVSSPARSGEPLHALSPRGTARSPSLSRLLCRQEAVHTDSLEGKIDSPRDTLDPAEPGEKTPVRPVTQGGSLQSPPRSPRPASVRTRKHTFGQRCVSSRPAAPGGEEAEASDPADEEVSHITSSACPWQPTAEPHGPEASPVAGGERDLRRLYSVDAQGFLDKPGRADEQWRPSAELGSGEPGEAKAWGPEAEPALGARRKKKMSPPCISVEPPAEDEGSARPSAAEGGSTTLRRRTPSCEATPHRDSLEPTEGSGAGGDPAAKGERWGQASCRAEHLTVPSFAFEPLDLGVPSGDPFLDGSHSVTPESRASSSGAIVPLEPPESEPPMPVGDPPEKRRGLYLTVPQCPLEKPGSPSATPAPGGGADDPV
compound,measurement,setting,value
CC1CC(C)CN(C(=O)CSc2nnc(-c3ccc(Cl)s3)o2)C1 (stereo unspecified),EC50,[1],10.8 µM (active)
CC1Cc2nc(SCC(=O)N3CCOCC3)n(-c3ccccc3)c(=O)c2S1 (stereo unspecified),AC50,[2],5.31 µM (active)
CC1CCC2(CC1)NC(=O)N(NC(=O)CCl)C2=O (stereo unspecified),EC50,H4,> 120 µM (not active)
same,EC50,[3],34.7 µM (active)
same,EC50,[4],> 120 µM (not active)
CC(=O)c1ccc(N2CCN(C(=O)c3ccc4c(c3)OCO4)CC2)cc1,AC50,[2],0.155 µM (active)
CCNC(=O)[C@H]1[C@H](CO)[C@H]2Cn3c(ccc(-c4ccccc4)c3=O)[C@H]2N1C(=O)Cc1cccnc1,AC50,[2],16.3 µM (active)
Cc1noc(C)c1S(=O)(=O)N(C)C[C@@H]1Oc2ccc(NC(=O)Nc3cccc4ccccc34)cc2CC(=O)N([C@@H](C)CO)C[C@@H]1C,AC50,[5],2.44 µM (active)
same,AC50,[6],9.04 µM (active)
same,AC50,[7],4.83 µM (active)
O=C(CSc1nc2c(c(=O)n1-c1ccc(Cl)cc1)SCC2)N1CCOCC1,AC50,[2],6.81 µM (active)
CCOc1ccc(-n2cc(-c3ccccc3)c3c(N4CCOCC4)ncnc32)cc1,AC50,[8],56.7 µM (active)
same,AC50,[9],> 52 µM (inactive)
same,AC50,[10],47.3 µM (active)
same,IC50,H9c2,> 79 µM (inactive)
same,AC50,[11],36.1 µM (active)
CN1CCN(c2ccc(Cl)cc2NC(=O)C2COc3ccccc3O2)CC1 (stereo unspecified),EC50,[1],8.08 µM (active)
C=C1C(C)C2C(Cc3ccccc3)NC(=O)C23C(OC(C)=O)/C=C/C(C)(O)CC(C)C/C=C/C3C1O (stereo unspecified),GI50,SN12K1,0.0294 µM (active)
same,GI50,P388,0.608 µM (active)
same,GI50,P388/ADR,2.58 µM (inactive)
COc1cc2c(cc1OC)C(/C=C/c1ccco1)=NCC2,CC50,[12],100 µM (active)
same,IC50,[13],42.3 µM (active)
CCc1cc(-c2ccc3c(c2)COc2c4ccccc4nn2-3)on1,AC50,[8],22.7 µM (active)
same,AC50,[9],47.8 µM (active)
same,AC50,[10],40.4 µM (active)
same,AC50,[11],> 52 µM (inactive)
